Test results taken from patent US10894772B2, “Flavor modulator having pyridine derivative or salt thereof as active ingredient” (T. HASEGAWA CO., LTD., priority 2015, dated 2021).

Columns and labels:
Assay type in all cases: in vivo
[1] = test system: panelists; assay: Confirmation of umami in water (organoleptic evaluation of taste and flavor in words); details: average of 5 panelists
Procedure: A solution was prepared by dissolving 2-(3-benzyloxypropyl)pyridine (invention product 101) in water to have a concentration shown in Table 15. As a comparative product, a solution was prepared by dissolving 2-(2-benzyloxyethyl)pyridine (comparative product 1 prepared in Comparative Example 1) to have the same concentration. Well-trained 5 panelists tasted the solutions and non-added water for organoleptic evaluation of taste and flavor.
The invention product 101 and the comparative product 1 were individually diluted with ethanol to have a proper concentration, and then further diluted with water to prepare an aqueous solution of 2-(3-benzyloxypropyl)pyridine (invention product 101 produced in Example 101) and that of 2-(2-benzyloxyethyl)pyridine (comparative product synthesized in Comparative Example 1) each having a concentration shown in the following Table 21. Well-trained panelists tasted the solution having a different concentration and non-added water for organoleptic evaluation in point of taste and flavor. […]

[2] = test system: panelists; assay: Confirmation of umami imparting and saltiness enhancing effect in 0.3 mass % sodium chloride (evaluation in words); details: average of 5 panelists, Example 108
Procedure: An aqueous 0.3 mass % sodium chloride solution (control), and solutions of 2-(3-benzyloxypropyl)pyridine dissolved in a 0.3 mass % sodium chloride solution to have the concentration shown in Table 17 were prepared. As comparative products, an aqueous 0.3 mass % sodium chloride solution (control), and a solution of a comparative product, 2-(2-benzyloxyethyl)pyridine dissolved in a 0.3 mass % sodium chloride solution to have the same concentration were prepared. Well-trained 5 panelists tasted the solutions for organoleptic evaluation of umami impartment and saltiness enhancement.
An aqueous 0.3 mass % sodium chloride solution (control), and solutions of the invention product 201 or the reference product 202 dissolved in a 0.3 mass % sodium chloride solution to have the concentration as 2-(3-benzyloxypropyl)pyridine therein shown in the following Table 23 were prepared. Well-trained 5 panelists tasted the solutions for organoleptic evaluation of umami impartment and saltiness enhancement.

[3] = test system: panelists; assay: Confirmation of umami in water (point score); details: average point of 10 panelists, 0 no difference from control (water), 1 somewhat stronger, 2 stronger, 3 considerably stronger, 4 poor taste balance
Procedure: As a comparative product, a solution was prepared by dissolving the comparative product 1 (2-(2-benzyloxyethyl)pyridine) to have the same concentration. Water with no addition was prepared as a control product. Well-trained 10 panelists tasted the solutions prepared by dissolving any the invention products 1 to 6 and the comparative product 1 for organoleptic evaluation of umami.
Umami evaluation was based on the control product of water.

[4] = test system: panelists; assay: Confirmation of umami imparting and saltiness enhancing effect in 0.3 mass % sodium chloride (point score); details: average point of 10 panelists vs control, 0 no change, 1 slightly higher, 2 higher, 3 considerably higher, 4 extremely higher umami and saltiness, 5 bitter as lacking balance
Procedure: An aqueous 0.3 mass % sodium chloride solution (control), and solutions of the invention products 1 to 6 each dissolved in a 0.3 mass % sodium chloride solution to have the concentration shown in Table 5 were prepared. As a comparative product, a solution was prepared by dissolving the comparative product 1 in 0.3 mass % sodium chloride. Well-trained 10 panelists tasted the solutions for organoleptic evaluation of umami impartment and saltiness enhancement.
Umami and saltiness scores are as follows, based on the aqueous 0.3 mass % sodium chloride solution as a control. Each sample was given any of a point 0, no change from control; 1, slightly higher umami and saltiness than control; 2, higher umami and saltiness than control; 3, considerably higher umami and saltiness than control; 4, extremely higher umami and saltiness than control; and 5, bitter as lacking balance of umami and saltiness.

## c1ccc(COCCc2ccccn2)cc1 [comparative product 1, 2-(2-benzyloxyethyl)pyridine, reference compound]
[1]; 0.1 ppm dissolved in water, Example 107
  Organoleptic Evaluation Taste: Slightly umami.
[1]; 0.1 ppm, diluted with ethanol, then with water, Reference Example 201
  Organoleptic Evaluation Taste: Slightly umami.
[1]; 1 ppm dissolved in water, Example 107
  Organoleptic Evaluation Taste: Weakly umami.
[1]; 1 ppm, diluted with ethanol, then with water, Reference Example 201
  Organoleptic Evaluation Taste: Weakly umami.
[1]; 2 ppb dissolved in water, Example 107
  Organoleptic Evaluation Flavor: Nothing at all.
[1]; 2 ppb, diluted with ethanol, then with water, Reference Example 201
  Organoleptic Evaluation Flavor: Nothing at all.
[1]; 10 ppb dissolved in water, Example 107
  Organoleptic Evaluation Flavor: Nothing at all.
[1]; 10 ppb, diluted with ethanol, then with water, Reference Example 201
  Organoleptic Evaluation Flavor: Nothing at all.
[1]; 200 ppm dissolved in water, Example 107
  Organoleptic Evaluation Taste: Strongly umami.
[1]; 200 ppm, diluted with ethanol, then with water, Reference Example 201
  Organoleptic Evaluation Taste: Strongly umami.
[2]; 0.1 ppm in 0.3 mass % sodium chloride solution
  Organoleptic Evaluation (umami impartment and saltiness enhancement): Umami as compared with control.
[2]; 10 ppb in 0.3 mass % sodium chloride solution
  Organoleptic Evaluation (umami impartment and saltiness enhancement): Slightly umami as compared with control.
[3]; 0.1 ppm in water
  umami (average point): 0.8
[3]; 1 ppm in water
  umami (average point): 1.5
[3]; 2 ppb in water
  umami (average point): 0.0
[3]; 10 ppb in water
  umami (average point): 0.1
[3]; 20 ppm in water
  umami (average point): 2.2
[3]; 200 ppm in water
  umami (average point): 2.8
[3]; 500 ppm in water
  umami (average point): 3.3
[3]; 2000 ppm in water
  umami (average point): 3.8
[4]; 0.05 ppb in aqueous 0.3 mass % sodium chloride solution
  umami and saltiness (average point): 0.0
[4]; 0.1 ppb in aqueous 0.3 mass % sodium chloride solution
  umami and saltiness (average point): 0.0
[4]; 0.1 ppm in aqueous 0.3 mass % sodium chloride solution
  umami and saltiness (average point): 2.1
[4]; 0.5 ppm in aqueous 0.3 mass % sodium chloride solution
  umami and saltiness (average point): 3.0
[4]; 1 ppb in aqueous 0.3 mass % sodium chloride solution
  umami and saltiness (average point): 0.6
[4]; 2 ppm in aqueous 0.3 mass % sodium chloride solution
  umami and saltiness (average point): 3.4
[4]; 10 ppb in aqueous 0.3 mass % sodium chloride solution
  umami and saltiness (average point): 1.5
[4]; 10 ppm in aqueous 0.3 mass % sodium chloride solution
  umami and saltiness (average point): 4.2
[4]; 50 ppm in aqueous 0.3 mass % sodium chloride solution
  umami and saltiness (average point): 4.8
